Measured values: paper PMC8958504 (Journal of Medicinal Chemistry, 2022)
Several values for one entry are separate records, joined by “and”; a condition that tells them apart may be missing. Identical values can stand only once. Entries after “also recorded” stand apart in the source; their conditions may differ.

How the values were obtained:
hMAO-A = target: T1, hMAO-A (Homo sapiens, UniProt P21397); assay: biochemical; conditions: read-out: hMAO-A (IC50); recombinant hMAO-A, p-tyramine substrate
T1 sequence (P21397 1-527): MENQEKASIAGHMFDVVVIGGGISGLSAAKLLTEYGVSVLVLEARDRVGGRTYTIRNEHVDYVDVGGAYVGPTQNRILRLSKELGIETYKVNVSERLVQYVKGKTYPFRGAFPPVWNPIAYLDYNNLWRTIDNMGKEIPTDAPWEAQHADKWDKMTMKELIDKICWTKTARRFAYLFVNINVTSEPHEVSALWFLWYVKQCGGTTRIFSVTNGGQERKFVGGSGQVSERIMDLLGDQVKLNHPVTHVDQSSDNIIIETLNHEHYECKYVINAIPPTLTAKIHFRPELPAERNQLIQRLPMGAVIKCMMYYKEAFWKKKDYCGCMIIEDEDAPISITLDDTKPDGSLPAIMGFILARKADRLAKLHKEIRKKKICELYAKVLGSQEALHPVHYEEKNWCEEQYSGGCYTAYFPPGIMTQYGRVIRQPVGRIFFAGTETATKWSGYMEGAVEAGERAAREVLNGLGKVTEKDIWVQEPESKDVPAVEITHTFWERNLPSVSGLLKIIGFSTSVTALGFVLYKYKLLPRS
Description: (§1) The hMAO-A/B inhibition of all compounds was determined using the Amplex Red MAO assay kit.
(§2) Assays were performed following the general procedure previously described.[98] […] The specific fluorescence emission was calculated after subtracting the background activity, which was determined from wells containing all components except the hMAO isoforms, which were replaced with PBS.

hMAO-B = target: T2, hMAO-B (Homo sapiens, UniProt P27338); assay: biochemical; conditions: read-out: hMAO-B (IC50); recombinant hMAO-B, p-tyramine substrate
T2 sequence (P27338 1-520): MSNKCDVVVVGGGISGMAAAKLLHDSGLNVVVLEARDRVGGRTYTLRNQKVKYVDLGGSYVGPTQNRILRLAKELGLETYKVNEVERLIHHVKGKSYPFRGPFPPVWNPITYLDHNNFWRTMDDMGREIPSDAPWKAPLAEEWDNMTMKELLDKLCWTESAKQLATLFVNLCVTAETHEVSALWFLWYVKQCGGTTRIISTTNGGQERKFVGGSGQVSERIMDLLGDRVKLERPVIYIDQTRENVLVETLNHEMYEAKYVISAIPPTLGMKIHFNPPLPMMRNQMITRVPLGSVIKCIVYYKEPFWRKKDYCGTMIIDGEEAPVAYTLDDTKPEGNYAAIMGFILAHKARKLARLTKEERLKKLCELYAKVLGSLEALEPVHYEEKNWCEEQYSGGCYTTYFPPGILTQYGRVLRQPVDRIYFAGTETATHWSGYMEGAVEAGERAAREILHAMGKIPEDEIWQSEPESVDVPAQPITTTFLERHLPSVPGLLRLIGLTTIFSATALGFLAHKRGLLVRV
Description: as §1, §2

in vitro = in vitro ADME
adult mice NSCs = assay: Neurogenic studies in SGZ-derived neurospheres; type: cell-based, mouse; conditions: 10 μM
Description: Adult mice NSCs were isolated from SGZ of the dentate gyrus of the hippocampus and grown as free-floating neurospheres (NS).[72],[78] The neurogenic potential of each compound was determined using fluorescence confocal microscopy by quantifying the expression of two well-known neuronal markers: human β-III-tubulin (TuJ-1 clone) and microtubule-associated protein 2 (MAP-2). TuJ-1 is expressed in immature neurons, whereas the expression of MAP-2 indicates a consolidated mature neuronal stage.[79] Given that neurogenesis involves not only the proliferation of NSC but also the migration of newly generated cells, the greatest migration distance promoted by each compound was also measured (Figure 8).
Adult male C57BL/6 mice (3 months old) were used in order to determine neurogenesis activity. […] DAPI staining was used as a nuclear marker. Fluorescent representative images were acquired with a Nikon fluorescence microscope 90i coupled to a digital camera Qi. The microscope configuration was adjusted to produce the optimum signal-to-noise ratio. […] Quantification was undertaken using the image analySIS software (Soft Imaging System Corp., Münster, Germany) and normalized to total nuclei (DAPI-stained). The intensity of immunostaining of neurites from TuJ1-labeled cells and the number of MAP-2-positive cells were estimated from nine neurospheres per condition over three independent experiments. The outgrowth of the neurosphere cells was examined under a phase-contrast microscope and the farthest distance of cell migration was calculated from the edge of the sphere. At least 10 plated neurospheres per treatment were analyzed.

Thermodynamic solubility = type: physicochemical; conditions: phosphate buffer pH 7.4
p65 = assay: Western blotting of p65 in hippocampal slices exposed to OA; type: cell-based, mouse; conditions: hippocampal slices treated with OA
Description: As iNOS can be produced through the NF-κB (nuclear factor kappa-light-chain-enhancer of activated B cells) pathway, we analyzed the levels of p65, one of the components that form the NF-κB transcription factor family.[82] […] We also measured HO-1, an inducible enzyme transcribed by NRF2, known for its anti-inflammatory, antioxidant, and neuroprotective effects. […] NRF2 and NF-κB signaling pathways cooperate to maintain the physiological homeostasis of cellular redox status and to regulate the cellular response to stress and inflammation.[19],[83] […] This last mechanism could be related to our resveratrol-based MTDL 4e.
After acute treatment, the hippocampal slices were lysed in a cold AKT lysis buffer (137 mM NaCl, 20 mM NaF, 10% glycerol, 20 mM Tris–HCl, 1% Nonidet P-40, 1 μg/mL leupeptin, 1 mM phenylmethylsulfonylfluoride, 1 mM sodium pyrophosphate, and 1 mM Na3VO4, pH 7.5). The total protein in each sample was quantified using the Pierce BCA protein kit (Thermo Fisher). 20 μg of protein was resolved by sodium dodecyl sulfate polyacrylamide gel electrophoresis (SDS-PAGE) and transferred to Immobilon-P PVDF membranes (Millipore Corp.). […] The membranes were washed, incubated with ECL WB Kit (GE Healthcare, Amersham), and exposed using a ChemiDoc MP system (Bio-Rad Laboratories) for the visualization of the specific bands, which were then analyzed with Fiji software.

C#CCn1nc(/C=C/c2ccc(OC)cc2)oc1=O [4e, 5-[(E)-2-(4-Methoxyphenyl)ethenyl]-3-(prop-2-yn-1-yl)-1,3,4-oxadiazol-2(3H)-one]
IC50 (hMAO-A): > 50 µM | IC50 (hMAO-B): 8.05 ± 1.82 µM | Papp at 240 min, 100 μg mL^–1 (in vitro; PAMPA, pH 7.4, class from PAMPA-BBB Pe, read-out: CNS-permeability prediction): > 4 ×10⁻⁶ cm/s | PAMPA-BBB (Pe, 10^–6 cm s^–1) (in vitro; porcine brain lipid, PBS/EtOH (70:30), 240 min, 25 °C): 8.0 ± 0.5 10^–6 cm s^–1 | TuJ-1 and MAP-2 marked cells (adult mice NSCs): clearly increased; also recorded: highest expression of young cells (TuJ-1) and mature neurons (MAP-2) | cell migration distance (adult mice NSCs): extended; also recorded: greatest distance of cell migration | solubility thermodynamic (Thermodynamic solubility): 76.1 µM and 19.5 µg/mL | p65 level (p65): slightly reduced p65 below to the basal value
